From patent publication US20070111967A1, “Organosilicon compounds and their use” (priority 2003, published 2007) come the findings set out here.

The structures appear in SMILES notation.

For `COc1cc(OC)c(NC(=O)c2ccc(Cc3cc4c(cc3C)[Si](C)(C)C[Si]4(C)C)o2)c(OC)c1`, the melting point (in general, the temperature of the solid-liquid transition) was found to be 105 °C.
